Patent US8372406B2, “Antitumoral and antiviral peptides” (priority 2004, dated 2013)

Legend:
[1] = system: R388D1 cells (lymphoid neoplasm of a mouse); experiment: Clonogenic activity of tumor cells, interaction with cyclophosphamide; assay type: cell-based; settings: clones counted after 7 days; for influence upon the cloning process (clonogenic activity): taken separately
tumor cells = experiment: In vitro effect of alloferon on tumor cell proliferation; assay type: cell-based; settings: depending on concentration in cultural media
[2] = system: mice tumor syngeneic graft; experiment: Growth of mice tumor syngeneic graft (alloferon research); settings: mouse, in vivo
leucocytes of a human = experiment: Interferon in vitro synthesis by human leucocytes (interferonogenic activity); assay type: cell-based; settings: 0.01-10 microgram/ml, 24 hours, 6 donated blood samples
[3] = system: tumor cells of the syngeneic line R388D1; experiment: Antitumoral action on transplanted tumors in mice; assay type: in vivo, mouse (line DBA-1)
Method: Each of laboratory mouse (line DBA-1) was subcutaneously injected by 3000 tumor cells of the syngeneic line R388D1. Next day mice were separated into 4 experimental groups. Mice of the first group have got only allostatin in a subcutaneous way in a dosage on 25 microgram at 4, 11 and 18 day after tumor cell transplantation. Second group has got a combination of cytostatic agents, cyclophosphamide (0.56 mg), doxorubicine (0.036 mg) and vincrystine (1.05 microgram) on the day of transplantation and after 7, 14 and 21 days. Third group has got allostatin and combination of cytostatic agents in the same way. Mice of the fourth group (control group) were injected by the solvent (0.9% NaCl) in the same days.

R388D1-type tumor cells = experiment: In vitro influence on tumor cells proliferation (mass culture, cell counts); assay type: cell-based, mouse
Method: Object of instant experiments is the comparative analysis of influence of allostatin and alloferon on tumor cells proliferation. Effects of allostatin-1 and alloferon-1 in concentrations 0.001, 0.01, 0.1, 1, and 10 microgram per ml on proliferative activity in a mass culture of R388D1-type tumor cells were compared. 5000 cells suspended in 2 ml of […] medium were seed into wells of 24-socket plates. Medium used for the experiments comprises 5% fetal calf serum produced by firm “Biolot”. Preparations were introduced into wells in 0.2 ml of the sane medium immediately after inoculation, and, in control, equivalent amount of the medium was introduced without medications. Number of cells in 1 ml of incubating medium was estimated by means of hemocytometric camera. Average number of cells in 1 ml of incubating medium after 21, 44, 99 and 144 hours after beginning of the experiment was estimated on the base of 3 independent measurements.
FIG. 3 presents a typical view of allostatin and alloferon influence on growth dynamics of tumor cell population. As an evaluation indicator of anti-proliferative activity of the medication, the value of a growth multiplicity of the population for 90 hours was selected, which value is determined as a ratio of a number of cells in a well in the beginning and at the end of the incubation time. […]

Compound | influence upon the cloning process (clonogenic activity) [1] | proliferation of tumor cells (tumor cells) | growth of mice tumor syngeneic graft [2] | interferonogenic activity (allostatin vs alloferon) (leucocytes of a human) | mice with formed tumors during observation period ([3]; allostatin 25 microgram s.c. (days 4, 11, 18) combined with cytostatics (cyclophosphamide, doxorubicine, vincrystine)) [%] | tumor formation ([3]; allostatin or cytostatics given separately, DBA-1 mice, 3000 R388D1 cells subcutaneously) | antitumoral action ([3]; combination of allostatin and cytostatics) | growth of the tumor cell population (R388D1-type tumor cells; 10 microgram/ml, over the observation period) | anti-proliferative activity relative to alloferon (growth multiplicity of the population) (R388D1-type tumor cells; concentrations of 0.001-1 mkg/ml, growth multiplicity for 90 hours) | clonogenic activity of tumor cells ([1]; allostatin in combination with cyclophosphamide)
O=P1(N(CCCl)CCCl)NCCCO1 (stereo not drawn) [cyclophosphamide, reference compound] | Neither cyclophosphamide, nor allostatin taken separately, had a significant influence |  |  |  |  |  |  |  |  | 
alloferon: Known immunomodulating peptide, SEQ ID NO 12; closest analogue, histidine and valine in positions 6 and 11 (HGVSGHGQHGVHG; Alloferon-1; listed as Calliphora vicina) |  | may both inhibit (at high concentrations) and stimulate (at low concentrations) | depresses the growth | have no significant difference |  |  |  |  |  | 
allostatin: Linear 13-amino-acid peptide, SEQ ID NO 1; differs from alloferon-1 by tryptophan at position 6 and threonine at position 11 (HGVSGWGQHGTHG; Synthetic construct designed on the basis of the peptides SEQ ID NO 2-12 comparison) | Neither cyclophosphamide, nor allostatin taken separately, had a significant influence |  |  | have no significant difference | 40 | tumors were formed after some delays, and moderate part of animals has not exhibited tumor formation | strong and in the most cases irreversible antitumoral action | almost completely stopped the growth | 3-7 times | significantly decreased a clonogenic activity of tumor cells, proportionally to allostatin dose
